Here are results for 38 molecules from patent publication US20110183978A1, “Phenylpyri(mi)dinylazoles” (Bayer CropScience AG, priority 2009, published 2011).

Molecules are shown by their SMILES. Like-named read-outs stand apart in the source and are kept apart here.

Data set [1] can be described thus: physchem.
The subject of data set [2] is Fusarium graminearum. As to the kind of experiment: microbe, parasite or virus in culture. The format is cell-based.
In data set [3] the test system is Sphaerotheca fuliginea. As to the kind of experiment: Example L: in vivo test on Sphaerotheca fuliginea (powdery mildew on cucumber/protective). The conditions noted are these: Podosphaera fuliginea, 168 h, cucumber, protective, assessment 7 days after inoculation, read-out: % Wirkungsgrad. On the procedure:
Solvent: 49 parts by weight N,N-dimethylformamide Emulsifier: 1 part by weight alkylaryl polyglycol ethers For the preparation of a suitable active substance preparation, 1 part by weight of active substance is mixed with the stated quantities of solvent and emulsifier and the concentrate is diluted to the desired concentration with water. For the testing for protective activity, young cucumber plants are sprayed with the active substance preparation at the stated application dosage. One day after the treatment, the plants are inoculated with a spore suspension of Sphaerotheca fuliginea. Next, the plants are placed in a greenhouse at 70% relative atmospheric humidity and a temperature of 23° C. 7 days after the inoculation, the assessment takes place.

Data set [4] concerns Alternaria solani. Nature of the data set: Example M: in vivo test on Alternaria solani (leaf blotch disease/tomato/protective). Conditions: 168 h, tomato, protective, 500 ppm active substance, assessed 7 days after inoculation, read-out: % Wirkungsgrad (activity level). On the procedure:
Solvent: 49 parts by weight N,N-dimethylformamide Emulsifier: 1 part by weight alkylaryl polyglycol ethers For the preparation of a suitable active substance preparation, 1 part by weight of active substance is mixed with the stated quantities of solvent and emulsifier and the concentrate is diluted to the desired concentration with water. For the testing for protective activity, young tomato plants are sprayed with the active substance preparation at the stated application dosage. […] 7 days after the inoculation, the assessment takes place.

Setting [5] is: LogPA (logP of the stated pure compound or, in a mixture, of the main isomer, 1-substituted 3-aryl-1H-pyrazole).
Setting [6] is: 72 h, read-out: % Inhibition des Pilzwachstums bei 50 μM.
Where [7] appears, read: 168 h, read-out: % Inhibition der DON/AcDON produktion bei 50 μM.

As to `CC(C)Cn1cc(-c2ccncc2)c(-c2ccc(F)c(C#N)c2)n1` [Compound 154], the chromatographic logP – broadly, a lipophilicity value derived from retention on a column – in data set [1] (setting [5]) is 1.65. Besides, the inhibition at 50 µM in data set [2] (setting [6]) came to 0%; in data set [2] (setting [7]) it was 93%.

Molecule `COC(=O)C(C(C)C)n1cc(-c2ccnc(NC(=O)C(C)C)c2)c(-c2ccc(F)cc2)n1` (centres unmarked) [Compound 277] returned a chromatographic logP in data set [1] (LogPA) of 3.05. Also, the figures for the pest or weed control at 500 ppm in data set [3] and in data set [4] were 94% and 100%, respectively.

For the molecule `CC(C)On1cc(-c2ccncc2)c(-c2ccc(F)cc2)n1` [Compound 227], in data set [1] (LogPA), the chromatographic logP came out at 1.58. The inhibition at 50 µM in data set [2] (setting [6]) and in data set [2] (setting [7]) was 100% in each case. Besides, the pest or weed control at 500 ppm in data set [4] is 95%.

As to `CCn1cc(-c2ccnc(NC(=O)[C@@H]3C[C@H]3c3ccccc3)c2)c(-c2ccc(F)cc2)n1` [Compound 337], the chromatographic logP in data set [1] (LogPA) came out at 3.06. The pest or weed control at 500 ppm in data set [3] stood at 88%; in data set [4], 95%.

`CC(C)Cn1cc(-c2ccnc(NC3COC3)n2)c(-c2ccc(F)cc2)n1` [Compound 279] had a chromatographic logP in data set [1] (LogPA) of 2.35. In addition, the pest or weed control at 500 ppm in data set [3] stood at 100%; in data set [4] it was 70%.

Regarding `CC(C)Nc1nccc(-c2cn(C(C)C)nc2-c2ccc(F)cc2)n1` [Compound 371], the chromatographic logP in data set [1] (LogPA) was 2.92. For the same molecule, the pest or weed control at 500 ppm amounted to 94% in data set [3] and 95% in data set [4].

In the case of `CCC(=O)Nc1cc(-c2cn(CC(C)C)nc2-c2ccc(F)c(C#N)c2)ccn1` [Compound 230], the chromatographic logP in data set [1] (LogPA) was 2.67. In addition, the inhibition at 50 µM in data set [2] (setting [6]) was 0%; in data set [2] (setting [7]), 97%.

The molecule `CCOC(=O)Nc1cc(-c2cn(CC(C)C)nc2-c2ccc(F)c(C#N)c2)ccn1` [Compound 265] showed a chromatographic logP in data set [1] (LogPA) of 3.19. The inhibition at 50 µM worked out at 9% in data set [2] (setting [6]) and 98% in data set [2] (setting [7]).

For `CCC(C)C(=O)Nc1cc(-c2cn(C)nc2-c2ccc(F)cc2)ccn1` (centres unmarked) [Compound 348], in data set [1] (LogPA), the chromatographic logP was 2.14. For the same molecule, the pest or weed control at 500 ppm in data set [3] and in data set [4] was 95% each time.

As to `Cc1c(-c2ccncc2)c(-c2ccc(F)cc2)nn1CC(F)F` [Compound 367], the chromatographic logP in data set [1] (LogPA) was 1.49. The pest or weed control at 500 ppm in data set [3] was 84%; in data set [4], 95%.

Molecule `CCOCCn1cc(-c2ccnc(NC(=O)COC)c2)c(-c2ccc(F)cc2)n1` [Compound 327] registered a chromatographic logP in data set [1] (LogPA) of 2.38. In addition, the results for the inhibition at 50 µM in data set [2] (setting [6]) and in data set [2] (setting [7]) were 105% and 100%, respectively. Besides, the pest or weed control at 500 ppm in data set [4] was 95%.

On to `CCC(=O)Nc1cc(-c2cn(C)nc2-c2ccc(F)cc2)ccn1` [Compound 296], for which, in data set [1] (LogPA), the chromatographic logP was 1.56. In addition, the pest or weed control at 500 ppm in data set [3] was 84%; in data set [4], 100%.

The molecule `CC(C)n1cc(-c2ccnc(N)n2)c(-c2ccc(F)cc2)n1` [Compound 366] yielded a chromatographic logP in data set [1] (LogPA) of 1.54. Further, the pest or weed control at 500 ppm is 94% in data set [3] and 80% in data set [4].

Consider `CC(C)OC(=O)Nc1cc(-c2cn(C(C)C)nc2-c2ccc(F)cc2)ccn1` [Compound 181], for which, in data set [1] (LogPA), the chromatographic logP was determined as 2.99. Moreover, the pest or weed control at 500 ppm was 85% in data set [3] and 94% in data set [4].

In data set [1] (LogPA), `CCCn1cc(-c2ccnc(NC(=O)CC)c2)c(-c2ccc(F)cc2)n1` [Compound 292] returned a chromatographic logP of 2.15. Further, the pest or weed control at 500 ppm in data set [3] was 95%; in data set [4], 100%.

In the case of `CC(C)Cn1cc(-c2ccnc(NC(=O)C3CC3)c2)c(-c2ccc(F)c(C#N)c2)n1` [Compound 261], the chromatographic logP in data set [1] (LogPA) is 2.77. Besides, the inhibition at 50 µM is 39% in data set [2] (setting [6]) and 99% in data set [2] (setting [7]).

`CCC(=O)Nc1cc(-c2cn(C(C)C3CC3)nc2-c2ccc(F)cc2)ccn1` (centres unmarked) [Compound 301]: the chromatographic logP in data set [1] (LogPA) was 2.54. In addition, the pest or weed control at 500 ppm in data set [3] and in data set [4] was 95% throughout.

The molecule `CCCn1cc(-c2ccnc(NC(=O)COC)c2)c(-c2ccc(F)cc2)n1` [Compound 293] registered a chromatographic logP in data set [1] (LogPA) of 2.58. In addition, the results for the pest or weed control at 500 ppm in data set [3] and in data set [4] were 94% and 100%, respectively.

As for `CC(C)C(=O)Cn1cc(-c2ccncc2)c(-c2ccc(F)cc2)n1` [Compound 178], the chromatographic logP in data set [1] (LogPA) stood at 1.37. Also, the pest or weed control at 500 ppm is 75% in data set [3] and 94% in data set [4].

Take `COCC(=O)Nc1cc(-c2cn(CC(C)C)nc2-c2ccc(F)c(C#N)c2)ccn1` [Compound 246]: in data set [1] (LogPA), the chromatographic logP stood at 2.98. Moreover, the inhibition at 50 µM was found to be 88% in data set [2] (setting [6]) and 99% in data set [2] (setting [7]).

In data set [1] (LogPA), `Cn1cc(-c2ccnc(NC(=O)c3ccccc3)c2)c(-c2ccc(F)cc2)n1` [Compound 346] showed a chromatographic logP of 2.42. Besides, the pest or weed control at 500 ppm in data set [3] was 95%.

Regarding `CCC(=O)Nc1cc(-c2cn(CC3OCCO3)nc2-c2ccc(F)cc2)ccn1` [Compound 278], the chromatographic logP in data set [1] (LogPA) came out at 1.59. Also, the pest or weed control at 500 ppm was 89% in data set [3] and 95% in data set [4].

In data set [1] (LogPA), `CCCn1cc(-c2ccnc(NC(=O)C(C)C)c2)c(-c2ccc(F)cc2)n1` [Compound 294] had a chromatographic logP of 2.49. Also, the pest or weed control at 500 ppm in data set [3] was found to be 98%; in data set [4], 100%.

In data set [1] (LogPA), `CCn1cc(-c2ccnc(NC(=O)CCCC(=O)OC)c2)c(-c2ccc(F)cc2)n1` [Compound 331] showed a chromatographic logP of 2.02. Also, in data set [3], the pest or weed control at 500 ppm was 94%.

Molecule `CCn1cc(-c2ccnc(NC(=O)CC3CCCC3)c2)c(-c2ccc(F)cc2)n1` [Compound 338] gave a chromatographic logP in data set [1] (LogPA) of 3.87. In addition, the figures for the pest or weed control at 500 ppm in data set [3] and in data set [4] were 91% and 80%, respectively.

In data set [1] (LogPA), `O=C(CC1CC1)Nc1cc(-c2cn(C3CC3)nc2-c2ccc(F)cc2)ccn1` [Compound 323] returned a chromatographic logP of 2.48. The pest or weed control at 500 ppm was 86% in data set [3] and 95% in data set [4].

Take `CC(C)C(=O)Nc1cc(-c2cn(CC3OCCO3)nc2-c2ccc(F)cc2)ccn1` [Compound 276]: the chromatographic logP in data set [1] (LogPA) was determined as 1.99. Further, the results for the pest or weed control at 500 ppm in data set [3] and in data set [4] were 99% and 95%, respectively.

For `CCC(=O)Nc1cc(-c2cn(C(C)CC#N)nc2-c2ccc(F)cc2)ccn1` (centres unmarked) [Compound 312], the chromatographic logP in data set [1] (LogPA) came out at 1.87. In addition, the pest or weed control at 500 ppm in data set [3] and in data set [4] was 100% each time.

Consider `CCCn1cc(-c2ccnc(NC(=O)CC3CC3)c2)c(-c2ccc(F)cc2)n1` [Compound 295], for which the chromatographic logP in data set [1] (LogPA) turned out to be 2.66. Further, the pest or weed control at 500 ppm in data set [3] was found to be 94%; in data set [4], 100%.

Regarding `CCC(=O)Nc1cc(-c2cn(C3CC3)nc2-c2ccc(F)cc2)ccn1` [Compound 320], the chromatographic logP in data set [1] (LogPA) worked out at 1.97. For the same molecule, the pest or weed control at 500 ppm in data set [3] was determined as 94%; in data set [4] it was 95%.

Turning to `Cc1cc(-c2cn(C3CCCCO3)nc2-c2ccc(F)cc2)ccn1` (centres unmarked) [Compound 31], the chromatographic logP in data set [1] (setting [5]) amounted to 1.38. Also, in data set [3], the pest or weed control at 500 ppm came to 70%.

In data set [1] (LogPA), `CCn1cc(-c2ccnc(NC(=O)c3snnc3C)c2)c(-c2ccc(F)cc2)n1` [Compound 335] came in with a chromatographic logP of 2.72. Besides, the pest or weed control at 500 ppm in data set [3] stood at 74%.

Molecule `CC(C)C(=O)Nc1cc(-c2c(-c3ccc(F)cc3O)nn(C)c2OC(F)F)ccn1` [Compound 257] showed a chromatographic logP in data set [1] (LogPA) of 2.44. Also, the inhibition at 50 µM was determined as 0% in data set [2] (setting [6]) and 94% in data set [2] (setting [7]). Also, the pest or weed control at 500 ppm in data set [4] came out at 94%.

Molecule `COCC(=O)Nc1cc(-c2cn(Cc3ccccc3F)nc2-c2ccc(F)cc2)ccn1` [Compound 247] had a chromatographic logP in data set [1] (LogPA) of 3.09. Also, the figures for the inhibition at 50 µM in data set [2] (setting [6]) and in data set [2] (setting [7]) were 96% and 99%, respectively. Further, the pest or weed control at 500 ppm in data set [4] was determined as 94%.

With `CC(C)Cn1cc(-c2ccnc(NC(=O)C(C)C)c2)c(-c2ccc(F)c(C#N)c2)n1` [Compound 255], the chromatographic logP in data set [1] (LogPA) amounted to 3.03. In addition, the inhibition at 50 µM in data set [2] (setting [6]) worked out at 0%; in data set [2] (setting [7]), 96%.

`CC(C)Cn1cc(-c2ccnc(NC(=O)CC3CC3)c2)c(-c2ccc(F)c(C#N)c2)n1` [Compound 252]: in data set [1] (LogPA), the chromatographic logP is 3.14. Further, the results for the inhibition at 50 µM in data set [2] (setting [6]) and in data set [2] (setting [7]) were 0% and 99%, respectively.

On to `O=C(Nc1cc(-c2cn(Cc3ccccc3F)nc2-c2ccc(F)cc2)ccn1)C1CC1` [Compound 262], for which the chromatographic logP in data set [1] (LogPA) came to 2.77. In addition, the inhibition at 50 µM in data set [2] (setting [6]) is 35%; in data set [2] (setting [7]), 99%. The pest or weed control at 500 ppm in data set [4] worked out at 95%.

As for `O=C1OCCC1n1cc(-c2ccncc2)c(-c2ccc(F)cc2)n1` (centres unmarked) [Compound 142], the chromatographic logP in data set [1] (setting [5]) came to 0.95. The inhibition at 50 µM in data set [2] (setting [6]) is 0%; in data set [2] (setting [7]), 89%. Besides, the pest or weed control at 500 ppm in data set [4] worked out at 94%.
